In assay [1] the test system is Colletotrichum lagenarium. The settings on record: 200 ppm spray on cucumber (3 leaf stage), inoculated next day; lesion numbers on first and second leaves after 7 days in green house, graded by Table 5.
A further assay concerns Pyricularia oryzae. Type of assay: in vivo. The settings on record: 200 ppm spray on rice (Koshihikari, 3 leaf stage), inoculated next day; lesion numbers on third leaves after 7 days in green house, graded by Table 5.

Turning to `COc1ccc(-c2cc(CNC(=O)c3ccc(C)cc3)on2)c(F)c1` [III-74, N-{[3-(2-fluoro-4-methoxyphenyl)-5-isoxazolyl]methyl}-4-methylbenzamide], the “Evaluation (effect for cucumber anthracnose)” value in assay [1] is listed as 5 (0). Moreover, in the assay on Pyricularia oryzae, the “Evaluation (effect for rice blast)” value is 5 (0).
As to `Cc1ccc(C(=O)NCc2cc(-c3ccccc3)no2)cc1` [III-107, N-[(3-phenyl-5-isoxazolyl)methyl]-4-methylbenzamide], the “Evaluation (effect for cucumber anthracnose)” value in assay [1] is listed as 5 (0). Also, the “Evaluation (effect for rice blast)” value in the assay with Pyricularia oryzae was 5 (0).
For the compound `CC(C)(C)c1ccc(C(=O)NCc2cc(-c3ccccc3)no2)cc1` [III-108, N-[(3-phenyl-5-isoxazolyl)methyl]-4-t-butylbenzamide], the “Evaluation (effect for cucumber anthracnose)” value in assay [1] was 3 (6˜10). The “Evaluation (effect for rice blast)” value in the assay with Pyricularia oryzae is 2 (11˜20).
Turning to `COc1ccccc1C(=O)NCc1cc(-c2ccccc2)no1` [III-109, N-[(3-phenyl-5-isoxazolyl)methyl]-2-methoxybenzamide], in assay [1], the “Evaluation (effect for cucumber anthracnose)” value was 5 (0). Besides, the “Evaluation (effect for rice blast)” value in the assay with Pyricularia oryzae is reported as 4 (1˜5).
As to `COc1ccc(C(=O)NCc2cc(-c3ccccc3)no2)cc1` [III-111, N-[(3-phenyl-5-isoxazolyl)methyl]-4-methoxy benzamide], the “Evaluation (effect for cucumber anthracnose)” value in assay [1] is 5 (0). Moreover, the “Evaluation (effect for rice blast)” value with Pyricularia oryzae is listed as 5 (0).
In the case of `O=C(NCc1cc(-c2ccccc2)no1)c1ccc(F)cc1` [III-121, N-[(3-phenyl-5-isoxazolyl)methyl]-4-fluorobenzamide], in assay [1], the “Evaluation (effect for cucumber anthracnose)” value is reported as 5 (0). Besides, the “Evaluation (effect for rice blast)” value in the assay with Pyricularia oryzae is reported as 5 (0).
Turning to `O=C(NCc1cc(-c2ccccc2)no1)c1ccccc1Cl` [III-122, N-[(3-phenyl-5-isoxazolyl)methyl]-2-chlorobenzamide], in assay [1], the “Evaluation (effect for cucumber anthracnose)” value is 4 (1˜5). Further, in the assay with Pyricularia oryzae, the “Evaluation (effect for rice blast)” value is 4 (1˜5).
Regarding `O=C(NCc1cc(-c2ccccc2)no1)c1cccc(Cl)c1` [III-123, N-[(3-phenyl-5-isoxazolyl)methyl]-3-chlorobenzamide], the “Evaluation (effect for cucumber anthracnose)” value in assay [1] is 5 (0). The “Evaluation (effect for rice blast)” value in the assay on Pyricularia oryzae is 5 (0).
With `O=C(NCc1cc(-c2ccccc2)no1)c1ccc(Cl)cc1` [III-124, N-[(3-phenyl-5-isoxazolyl)methyl]-4-chlorobenzamide], the “Evaluation (effect for cucumber anthracnose)” value in assay [1] is recorded as 4 (1˜5). Besides, the “Evaluation (effect for rice blast)” value in the assay on Pyricularia oryzae is reported as 5 (0).
For `O=C(NCc1cc(-c2ccccc2)no1)c1ccc(C(F)(F)F)cc1` [III-130, N-[(3-phenyl-5-isoxazolyl)methyl]-4-trifluoromethylbenzamide], in that order: 4 (1˜5) and 4 (1˜5).
`N#Cc1ccc(C(=O)NCc2cc(-c3ccccc3)no2)cc1` [III-133, N-[(3-phenyl-5-isoxazolyl)methyl]-4-cyanobenzamide]: the “Evaluation (effect for cucumber anthracnose)” value in assay [1] was 4 (1˜5). Also, the “Evaluation (effect for rice blast)” value with Pyricularia oryzae is listed as 4 (1˜5).
For the compound `Cc1ccc(-c2cc(CNC(=O)c3ccccc3O)on2)cc1` [III-134, N-[(3-(4-tolyl)-5-isoxazolyl)methyl]-2-hydroxybenzamide], in assay [1], the “Evaluation (effect for cucumber anthracnose)” value is given as 5 (0). The “Evaluation (effect for rice blast)” value in the assay with Pyricularia oryzae is reported as 3 (6˜10).
For `O=C(NCc1cc(-c2ccccc2)no1)c1ccc([N+](=O)[O-])cc1` [III-137, N-[(3-phenyl-5-isoxazolyl)methyl]-4-nitrobenzamide], in that order: 5 (0) and 4 (1˜5).
Turning to `O=C(NCc1cc(-c2ccccc2)no1)c1ccc(OC(F)(F)F)cc1` [III-139, N-[(3-phenyl-5-isoxazolyl)methyl]-4-trifluoromethoxybenzamide], the “Evaluation (effect for cucumber anthracnose)” value in assay [1] is given as 5 (0). Also, the “Evaluation (effect for rice blast)” value in the assay with Pyricularia oryzae is recorded as 5 (0).
For `COc1ccc(C(=O)NCc2cc(-c3ccccc3)no2)cc1OC` [III-156, N-[(3-phenyl-5-isoxazolyl)methyl]-3,4-dimethoxybenzamide], in assay [1], the “Evaluation (effect for cucumber anthracnose)” value was 4 (1˜5). The “Evaluation (effect for rice blast)” value in the assay with Pyricularia oryzae was 4 (1˜5).
Consider `Cc1ccc(-c2cc(CNC(=O)c3ccc(C)c(F)c3)on2)cc1` [III-162, N-[(3-(4-tolyl)-5-isoxazolyl)methyl]-3-fluoro-4-methylbenzamide], for which the “Evaluation (effect for cucumber anthracnose)” value in assay [1] is 5 (0). Moreover, the “Evaluation (effect for rice blast)” value in the assay with Pyricularia oryzae is 5 (0).
As to `O=C(NCc1cc(-c2ccccc2)no1)c1ccccn1` [III-174, (3-phenyl-5-isoxazolyl)methylaminocarbonyl-2-pyridine], the “Evaluation (effect for cucumber anthracnose)” value in assay [1] is 4 (1˜5). In the assay on Pyricularia oryzae, the “Evaluation (effect for rice blast)” value is on record as 4 (1˜5).
`O=C(NCc1cc(-c2ccccc2)no1)c1cccs1` [III-177, (3-phenyl-5-isoxazolyl)methylaminocarbonyl-2-thiophene]: the “Evaluation (effect for cucumber anthracnose)” value in assay [1] is 4 (1˜5). Also, the “Evaluation (effect for rice blast)” value with Pyricularia oryzae is reported as 4 (1˜5).
Consider `O=C(NCc1cc(-c2ccccc2)no1)c1ccc2c(c1)OCO2` [III-180, 5-(3-phenyl-5-isoxazolyl)methylaminocarbonyl-1,3-benzodioxol], for which the “Evaluation (effect for cucumber anthracnose)” value in assay [1] is reported as 5 (0). The “Evaluation (effect for rice blast)” value with Pyricularia oryzae is 5 (0).
As to `O=C(/C=C/c1ccccc1)NCc1cc(-c2ccccc2)no1` [III-201, (E)-N-[(3-phenyl-5-isoxazolyl)methyl]-3-phenylpropenamide], in assay [1], the “Evaluation (effect for cucumber anthracnose)” value was 5 (0). Also, the “Evaluation (effect for rice blast)” value with Pyricularia oryzae is reported as 5 (0).
Consider `O=C(NCc1cc(-c2ccccc2)no1)N1CCc2ccccc21` [III-208, N-[(3-phenyl-5-isoxazolyl)methylaminocarbonyl]indoline], for which the “Evaluation (effect for cucumber anthracnose)” value in assay [1] is recorded as 4 (1˜5). For the same compound, the “Evaluation (effect for rice blast)” value in the assay with Pyricularia oryzae was 4 (1˜5).
As for `Cc1ccc(C(=O)NCc2cc(/C=C/c3ccccc3)no2)cc1` [III-210, N-{[3-(2-phenylethenyl)-5-isoxazolyl)methyl]-4-methylbenzamide], the “Evaluation (effect for cucumber anthracnose)” value in assay [1] is 5 (0). Moreover, in the assay on Pyricularia oryzae, the “Evaluation (effect for rice blast)” value was 5 (0).
As to `CO/N=C/c1ccc(-c2cc(CNC(=O)c3ccc(C)cc3)on2)cc1` [III-214], the “Evaluation (effect for cucumber anthracnose)” value in assay [1] was 5 (0). The “Evaluation (effect for rice blast)” value with Pyricularia oryzae is given as 4 (1˜5).
In the same order, the values of `COc1ccc(C(=O)NCc2cc(-c3ccc(OC)cc3F)no2)cc1` [III-215, N-{[3-(2-fluoro-4-methoxyphenyl)-5-isoxazolyl]methyl}-4-methoxylbenzamide] are 5 (0) and 5 (0).
In the same order, the values of `COc1ccc(C(=O)NCc2cc(C=C(C)C)no2)cc1` [III-216, N-{[3-(2-methyl-1-propenyl)-5-isoxazolyl]methyl}-4-methoxylbenzamide] are 4 (1˜5) and 4 (1˜5).
For `Cc1ccc(C(=O)NCc2cc(-c3ccccn3)no2)cc1` [III-217, N-{[3-(2-pyridyl)-5-isoxazolyl]methyl}-4-methylbenzamide], in that order: 4 (1˜5) and 4 (1˜5).
Consider `Cc1ccc(C(=O)NCc2cc(-c3cccnc3)no2)cc1` [III-218, N-{[3-(3-pyridyl)-5-isoxazolyl]methyl}-4-methylbenzamide], for which the “Evaluation (effect for cucumber anthracnose)” value in assay [1] is 4 (1˜5). The “Evaluation (effect for rice blast)” value in the assay on Pyricularia oryzae is on record as 3 (6˜10).
In the case of `Cc1ccc(C(=O)NCc2cc(-c3ccncc3)no2)cc1` [III-219, N-{[3-(4-pyridyl)-5-isoxazolyl]methyl}-4-methylbenzamide], in assay [1], the “Evaluation (effect for cucumber anthracnose)” value is given as 3 (6˜10). Moreover, the “Evaluation (effect for rice blast)” value with Pyricularia oryzae was 3 (6˜10).
As to `COc1ccc(C(=O)NCc2cc(-c3ccsc3)no2)cc1` [III-220, N-{[3-(3-thienyl)-5-isoxazolyl]methyl}-4-methoxylbenzamide], the “Evaluation (effect for cucumber anthracnose)” value in assay [1] was 3 (6˜10). For the same compound, the “Evaluation (effect for rice blast)” value with Pyricularia oryzae is 3 (6˜10).
As for `C/C=C/C=C/c1cc(CNC(=O)c2ccc(OC)cc2)on1` [III-221, N-{[3-(1,3-pentadienyl)-5-isoxazolyl]methyl}-4-methoxylbenzamide], the “Evaluation (effect for cucumber anthracnose)” value in assay [1] is listed as 2 (11˜20). Moreover, the “Evaluation (effect for rice blast)” value in the assay on Pyricularia oryzae is reported as 2 (11˜20).
`COc1ccc(C(=O)NCc2cc(-c3cc4ccccc4n3C)no2)cc1` [III-223, N-{[3-(1-methylindol-2-yl)-5-isoxazolyl]methyl}-4-methoxybenzamide]: in assay [1], the “Evaluation (effect for cucumber anthracnose)” value is on record as 5 (0). Moreover, in the assay with Pyricularia oryzae, the “Evaluation (effect for rice blast)” value is recorded as 5 (0).
`COc1ccc(C(=O)NCc2cc(-c3nc4ccccc4s3)no2)cc1` [III-224, N-{[3-(benzo[d]thiazol-2-yl)-5-isoxazolyl]methyl}-4-methoxybenzamide]: the “Evaluation (effect for cucumber anthracnose)” value in assay [1] is given as 2 (11˜20). The “Evaluation (effect for rice blast)” value in the assay with Pyricularia oryzae is on record as 2 (11˜20).
In the case of `COc1ccc(C(=O)NCc2cc(C(C)C)no2)cc1` [III-225, N-[(3-isopropyl-5-isoxazolyl)methyl]-4-methoxybenzamide], in assay [1], the “Evaluation (effect for cucumber anthracnose)” value was 4 (1˜5). Besides, the “Evaluation (effect for rice blast)” value in the assay on Pyricularia oryzae is on record as 4 (1˜5).
On to `Cc1ccc(-c2cc(CNC(=O)C3CCCC3)on2)cc1` [III-227, N-{[3-(4-tolyl)-5-isoxazolyl]methyl}cyclopentanecarboxamide], for which the “Evaluation (effect for cucumber anthracnose)” value in assay [1] was 5 (0). For the same compound, in the assay with Pyricularia oryzae, the “Evaluation (effect for rice blast)” value is listed as 5 (0).
Consider `Cc1ccc(-c2cc(CNC(=O)C3CCC3)on2)cc1` [III-228, N-{[3-(4-tolyl)-5-isoxazolyl]methyl}cyclobutanecarboxamide], for which, in assay [1], the “Evaluation (effect for cucumber anthracnose)” value is 3 (6˜10). For the same compound, the “Evaluation (effect for rice blast)” value in the assay on Pyricularia oryzae is 4 (1˜5).
In the same order, the values of `COc1ccc(C(=O)NCc2cc(CC(C)C)no2)cc1` [III-229, N-[(3-isobutyl-5-isoxazolyl)methyl]-4-methoxybenzamide] are 5 (0) and 5 (0).

These data come from patent US20050171358A1 (priority 2002, published 2005).
